This note sets out measurements from patent US8674136B2, “Aromatic butan-2-ol compounds and preparation and uses thereof” (Institute of Pharmacology and Toxicology Academy of …, priority 2010, dated 2014).

The nature of series [1]: Acute toxicity in mice, single oral intragastric administration. It is filed as in vivo. As to conditions: male, BALB/C, mouse, in vivo, single oral intragastric administration, preliminary. On the procedure:
(§1) Experiments on the Acute Toxicity of the Compounds
(§2) The acute toxicities of Compounds 4, 16 and 25 were in vivo evaluated preliminarily in mice. Animal: male BALB/C mice, 18-20 g/mouse, 3 mice for blank control group, and 5 mice for each of test groups.
(§3) Method: Suspensions of Compound 25: 49 mg/ml (depended on the total amount of the compound provided); Compounds 4 and 16: 50 mg/ml were prepared in 0.5% CMC to separately. Each mouse of the 3 groups was subjected to oral intragastric administration of 0.2 ml of drug, and the doses were separately as follows: Compound 25: 490 mg/kg; and Compounds 4 and 16: 500 mg/kg. The blank control was administered with water. The consciousness, behavior and death of mice were observed every day after administration until 7 days of administration, and the survived mice were dissected after 7 days to observe pathological changes of tissues.

Another series concerns male BALB/C mice. Described as above. It is filed as in vivo. Conditions: observed 7 days. On the procedure:
as §1, §2, §3

Series [2] concerns Standard Strain H37Rv of mycobacterium tuberculosis. In words: MIC against standard strain H37Rv by Microplate Alamar Blue Assay (MABA). It is filed as cell-based. As to conditions: M. tuberculosis H37Rv, 7H9 medium, 37° C.

≈ marks a conversion by molar mass, not a printed value.

Broadly, the LD50 is the dose at which mortality reaches 50%. Higher therefore signals a less toxic substance. The MIC is the smallest concentration in the dilution series that meets the test's criterion for growth inhibition. Usually melting point stands for the temperature of the solid-liquid transition.

In series [1], `COc1cc2ccc(Br)cc2cc1C(c1ccc(Cl)cc1)C(O)(CCN(C)C)c1cccc2ccccc12` (single isomer, unassigned) [Compound 4, 1-(4-chlorophenyl)-2-(1-naphthyl)-1-[2-(7-bromo-3-methoxy)naphthyl]-4-(N,N-dimethylamino)-butan-2-ol] returned an LD50 at 7 days of at least 500 mg/kg. Moreover, the “death or abnormality of the animals” value with male BALB/C mice (single dose of 500 mg/kg) was “no death nor abnormality”. The MIC in series [2] amounted to 0.244 µg/mL (≈ 0.414 µM).
`COc1cc2ccccc2cc1C(c1ccc(Cl)cc1)C(O)(CCN(C)C)c1ccc(F)cc1F` (stereo not shown) [Compound 14, 1-(4-chlorophenyl)-2-(2,4-difluorophenyl)-1-[2-(3-methoxy)naphthyl]-4-(N,N-dimethylamino)-butan-2-ol] gave a melting point of 190.6 to 192.4 °C. In series [2], this molecule returned an MIC of 0.754 µg/mL (≈ 1.52 µM).
As for `COc1cc2ccc(Br)cc2cc1C(c1ccc(Cl)cc1)C(O)(CCN(C)C)c1cccc(Br)c1` (stereo not shown) [Compound 16, 1-(4-chlorophenyl)-2-(3-bromophenyl)-1-[2-(7-bromo-3-methoxy)naphthyl]-4-(N,N-dimethylamino)-butan-2-ol], in series [1], the median lethal dose (LD50) at 7 days is at least 500 mg/kg. Moreover, the “death or abnormality of the animals” value in the series with male BALB/C mice (single dose of 500 mg/kg) is listed as “no death nor abnormality”. The same molecule gave an MIC in series [2] of 0.184 µg/mL (≈ 0.298 µM).
With `COc1cc2ccc(Br)cc2cc1C(c1ccccc1)C(O)(CCN(C)C)c1cccc2ccccc12` (stereo not shown) [Compound 25, 1-phenyl-2-(1-naphthyl)-1-[2-(7-bromo-3-methoxy)naphthyl]-4-(N,N-dimethylamino)-butan-2-ol], the LD50 at 7 days in series [1] is at least 490 mg/kg. Further, the “death or abnormality of the animals” value in the series with male BALB/C mice (single dose of 490 mg/kg) is “no death nor abnormality”. Further, the MIC in series [2] was determined as 0.594 µg/mL (≈ 1.07 µM).
`COc1cc2ccc(Br)cc2cc1C(c1ccc(C)cc1)C(O)(CCN(C)C)c1cccc2ccccc12` (stereo not shown) [Compound 30, 1-(4-methylphenyl)-2-(1-naphthyl)-1-[2-(7-bromo-3-methoxy)naphthyl]-4-(N,N-dimethylamino)-butan-2-ol]: the melting point lay in the range of 189.5 to 190.8 °C. In series [2], this molecule had a minimal inhibitory concentration (MIC) of 1.000 µg/mL (≈ 1.76 µM).
